Results reported in paper PMC7893776, “Selecting an anti-malarial clinical candidate from two potent dihydroisoquinolones” (Malaria Journal, 2021).
“And” between values parts separate entries of the source, which are not always exact repeats. Equal values may be shown once. Read-outs that look alike come from different tables or passages of the source.

Columns and labels:
[1] = Mouse plasma pharmacokinetics, single PO or IV dose; format: in vivo, female C57BL/6 mice; conditions: for AUCinf / CL/F / Cmax / Half-life / Tmax / V/F / CL / Vss: mouse plasma; for bioavailability: po, read-out: Mouse F (oral bioavailability)
Text: Studies were undertaken to determine the plasma pharmacokinetics of SJ733 and SJ311. These studies included: (i) single oral gavage (PO) or intravenous (IV) dose administration to female C57BL/6 mice; (ii) single PO or IV dose administration to male Sprague Dawley (SD) rats; (iii) single PO or IV dose administration to male beagle dogs; (iv) toxicokinetic (TK) study following single PO administration to male SD rats. The PO and IV formulation used for mouse studies at SJCRH was 1% hydroxypropyl-beta-cyclodextrin (w/v), 10% ethanol (v/v), 10% propylene glycol (v/v), 40% PEG-400 (v/v) and 39% PBS (pH 7.4) isotonic (v/v). Compounds were dosed orally as suspensions, and intravenously as filtered solutions. Compound concentrations were confirmed post filtration using UV spectroscopy. The IV formulation used for rat studies (Monash University) was the same as that used for mice. For PO dosing to rats (Monash University) at 2 mg/kg, a suspension formulation was used containing 0.5% (w/v) hydroxypropyl methylcellulose, 0.5% (v/v) benzyl alcohol and 0.4% (v/v) Tween 80. The formulation used for rat studies at SRI (PO, high dose) was the same as that used in mouse PK studies. The formulation for the high dose TK study at SRI was 0.5% methylcellulose in sterile water. The formulation used for dog studies was the same as that used in mouse PK studies. The PO and IV PK of SJ733 and SJ311 were studied in female C57BL/6 mice. Mice had access to water and food ad libitum throughout the pre- and post-dose sampling period. Doses were administered at 15 mg/kg for IV and 10–200 mg/kg for PO with 20 mice in each dosage group. Two samples were taken from each mouse, with the first sample being a retro-orbital bleed (~ 200 µL) at the indicated time point (5, 15, 30 min, 1, 4, 24 h) and the second being terminal cardiac puncture (~ 500 µL) at the indicated time point (usually 48 h). EDTA disodium was used as anticoagulant and added to whole blood (10% volume of EDTA for 1% w/v final concentration) followed by centrifugation at 13,000 rpm for 2 min. Plasma was collected and stored frozen at -20 °C until analysis. For studies at SJCRH, all blood samples were kept on wet ice after collection and processed to plasma within 30 min of collection. Plasma samples were kept on dry ice and transferred to ≤ − 20 °C until analysis. Mouse plasma samples were extracted via protein precipitation with cold acetonitrile. The detection of the SJ733, SJ311, and warfarin (IS) was conducted by LC–MS with SIR or LC–MS/MS with MRM detection. Aliquots (3 µL) were injected onto a Waters Acquity UPLC equipped with an ABI Sciex 6500 Qtrap MS/MS and separated using an Acquity BEH C18 column (50 × 2.1 mm, 1.7 µm) with a methanol–water gradient containing 0.1% formic acid. Plasma concentration time (Ct) data for SJ733 and SJ311 were grouped by nominal time point, and the mean Ct values were subjected to noncompartmental analysis (NCA) using Phoenix WinNonlin 8.1 (Certara USA, Inc., Princeton, NJ). For all experiments, the area under the Ct and first moment curves (AUC, AUMC) were estimated using the “linear up log down” method. The terminal phase was defined as at least three time points at the end of the Ct profile, and the elimination rate constant (Kel) was estimated using an unweighted log-linear regression of the terminal phase. The terminal elimination half-life (T1/2) was estimated as 0.693/Kel, and the AUC from time 0 to infinity ([…]) was estimated as the AUC to the last time point (AUClast) + Clast (predicted)/Kel with the […] similarly calculated. Additional parameters estimated included observed maximum concentration (Cmax), time of Cmax (Tmax), concentration at the last observed time point (Clast), time of Clast (Tlast), and the apparent oral terminal volume of distribution (V/F). The apparent oral clearance (CL/F), systemic clearance (CL) and volume of distribution at steady state (Vss) were all estimated using standard formulae [19].

CYP1A2 = biological target: T1, CYP1A2 (Homo sapiens, UniProt P05177); test: CYP450 inhibition, CYP1A2; format: in vitro ADME; conditions: for inhibition of CYP1A2: 10 µM, probe substrate Ethoxy-resorufin, replicate measurements
T1 construct: purchased Cypex Ltd (Bactosomes)
T1 sequence (P05177 1-516): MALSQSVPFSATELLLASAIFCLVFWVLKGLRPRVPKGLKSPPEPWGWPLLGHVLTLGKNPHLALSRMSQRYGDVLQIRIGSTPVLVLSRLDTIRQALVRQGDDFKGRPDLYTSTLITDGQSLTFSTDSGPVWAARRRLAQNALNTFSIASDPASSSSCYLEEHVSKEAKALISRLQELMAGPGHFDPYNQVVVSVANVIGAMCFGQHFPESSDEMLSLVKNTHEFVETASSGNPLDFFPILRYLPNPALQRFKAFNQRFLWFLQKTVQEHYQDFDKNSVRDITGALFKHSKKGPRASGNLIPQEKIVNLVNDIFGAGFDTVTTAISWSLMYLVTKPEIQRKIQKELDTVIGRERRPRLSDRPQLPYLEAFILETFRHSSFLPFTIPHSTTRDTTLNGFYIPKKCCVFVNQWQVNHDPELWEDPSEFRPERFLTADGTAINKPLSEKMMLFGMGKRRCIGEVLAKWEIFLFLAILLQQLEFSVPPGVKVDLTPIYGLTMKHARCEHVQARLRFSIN

CYP2C19 = biological target: T2, CYP2C19 (Homo sapiens, UniProt P33261); test: CYP450 inhibition, CYP2C19; format: in vitro ADME; conditions: for inhibition of CYP2C19: 10 µM, probe substrate S-mephenytoin, replicate measurements
T2 construct: purchased Cypex Ltd (Bactosomes)
T2 sequence (P33261 whole entry): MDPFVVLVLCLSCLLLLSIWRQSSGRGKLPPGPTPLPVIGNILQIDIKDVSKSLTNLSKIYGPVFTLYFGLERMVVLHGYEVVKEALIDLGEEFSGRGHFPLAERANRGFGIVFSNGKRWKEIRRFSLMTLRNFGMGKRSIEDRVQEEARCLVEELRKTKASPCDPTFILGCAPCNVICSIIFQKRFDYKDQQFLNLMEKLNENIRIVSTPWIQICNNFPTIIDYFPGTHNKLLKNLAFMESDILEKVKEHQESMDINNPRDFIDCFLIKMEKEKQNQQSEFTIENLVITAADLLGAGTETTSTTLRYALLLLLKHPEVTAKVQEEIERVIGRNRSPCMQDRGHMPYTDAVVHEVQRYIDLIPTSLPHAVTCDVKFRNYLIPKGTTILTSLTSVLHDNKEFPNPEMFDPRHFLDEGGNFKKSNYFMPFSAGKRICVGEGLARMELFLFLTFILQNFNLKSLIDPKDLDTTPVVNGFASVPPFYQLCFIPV

CYP2D6 = biological target: T3, CYP2D6 (Homo sapiens, UniProt P10635); test: CYP450 inhibition, CYP2D6; format: in vitro ADME; conditions: for inhibition of CYP2D6: 10 µM, probe substrate Bufuralol, replicate measurements
T3 construct: purchased Cypex Ltd (Bactosomes)
T3 sequence (P10635 whole entry): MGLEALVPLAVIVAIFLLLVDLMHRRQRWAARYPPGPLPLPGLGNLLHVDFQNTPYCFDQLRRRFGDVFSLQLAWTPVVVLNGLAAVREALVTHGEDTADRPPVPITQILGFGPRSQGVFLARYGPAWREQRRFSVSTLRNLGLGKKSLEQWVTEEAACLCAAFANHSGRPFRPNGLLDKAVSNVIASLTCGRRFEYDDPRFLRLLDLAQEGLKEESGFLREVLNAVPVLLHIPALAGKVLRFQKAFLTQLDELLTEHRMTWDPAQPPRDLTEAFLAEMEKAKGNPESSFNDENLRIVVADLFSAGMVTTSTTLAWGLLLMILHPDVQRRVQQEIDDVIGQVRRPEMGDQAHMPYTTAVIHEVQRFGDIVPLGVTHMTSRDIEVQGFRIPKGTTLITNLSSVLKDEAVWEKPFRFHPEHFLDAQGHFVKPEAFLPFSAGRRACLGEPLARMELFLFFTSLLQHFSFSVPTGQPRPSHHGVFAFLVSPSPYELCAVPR

[2] = mouse, single PO 100 mg/kg vs IV
[3] = female, C57BL/6, mouse, plasma, mouse, summary over the oral doses studied
[4] = female, C57BL/6, single IV 15 mg/kg, read-out: Half-life

| SMILES | AUCinf ([1]; single PO 100 mg/kg) [µM·h] | CL/F ([1]; single PO 100 mg/kg) [mL/min/kg] | Cmax ([1]; single PO 100 mg/kg) [µM] | Half-life ([1]; single PO 100 mg/kg) [h] | Tmax ([1]; single PO 100 mg/kg) [h] | F [1, 2] [%] | inhibition of CYP1A2 (CYP1A2) | inhibition of CYP2C19 (CYP2C19) | inhibition of CYP2D6 (CYP2D6) | AUCinf ([1]; single IV 15 mg/kg) [µM·h] | CL ([1]; single IV 15 mg/kg) [mL/min/kg] | Cmax ([1]; single IV 15 mg/kg) [µM] | Half-life ([1]; single IV 15 mg/kg) [h] | Vss ([1]; single IV 15 mg/kg) [L/kg] | CYP1A2 inhibition, in words (CYP1A2) | CYP2C19 inhibition, in words (CYP2C19) | CYP2D6 inhibition, in words (CYP2D6) | bioavailability [1, 3] [%] | Half-life [1, 4] [h] | further results |
| --- | --- | --- | --- | --- | --- | --- | --- | --- | --- | --- | --- | --- | --- | --- | --- | --- | --- | --- | --- | --- |
| N#Cc1cc(NC(=O)[C@H]2c3ccccc3C(=O)N(CC(F)(F)F)[C@@H]2c2cccnc2)ccc1F [(+)-SJ733] | 53 | 67 | 11.7 ± 1.2 | 3.17 | 0.5 | 80.8 | – | – | – | – | – | – | – | – | – | – | – | – | – | AUCinf ([1]; single PO 10 mg/kg): 4.27 µM·h; CL/F ([1]; single PO 10 mg/kg): 83.3 mL/min/kg; Cmax ([1]; single PO 10 mg/kg): 1.38 ± 0.21 µM; Half-life ([1]; single PO 10 mg/kg): 3.63 h; Tmax ([1]; single PO 10 mg/kg): 0.5 h; V/F ([1]; single PO 10 mg/kg): 26.2 L/kg; F ([1]; mouse, single PO 10 mg/kg vs IV): 65% |
| N#Cc1cc(NC(=O)C2c3ccccc3C(=O)N(CC(F)(F)F)C2c2cccnc2)ccc1F (racemic) [(r)-SJ733] | – | – | – | – | – | – | 10.8% | 5, 5% | 7% and 9% | 10.8 | 49.7 | 11.3 | 1.52 | 2.41 | – | – | – | – | – | AUCinf ([1]; single PO 50 mg/kg): 28 µM·h; CL/F ([1]; single PO 50 mg/kg): 67 mL/min/kg; Cmax ([1]; single PO 50 mg/kg): 10.1 ± 4.5 µM; Half-life ([1]; single PO 50 mg/kg): 1.72 h; Tmax ([1]; single PO 50 mg/kg): 0.5 h; AUCinf ([1]; single PO 200 mg/kg): 155.7 µM·h; CL/F ([1]; single PO 200 mg/kg): 54.2 mL/min/kg; Cmax ([1]; single PO 200 mg/kg): 12.7 ± 3.2 µM; Half-life ([1]; single PO 200 mg/kg): 14.1 h; Tmax ([1]; single PO 200 mg/kg): 5 h; V/F ([1]; single PO 200 mg/kg): 3.23 L/kg; F ([1]; mouse, single PO 50 mg/kg vs IV): 70%; F ([1]; mouse, single PO 200 mg/kg vs IV): 98% |
| N#Cc1cc(NC(=O)C2c3ccccc3C(=O)N(CC(F)(F)F)C2c2cn[nH]c2)ccc1F (racemic) [(r)-SJ311] | 42 | 89 | 10.5 ± 5.3 | 4.20 | 0.5 | 23.1 | 5% and 0.5% | 12% | 11% | 20.7 | 27.2 | 13.4 | 1.56 | 2.11 | – | – | – | – | – | V/F ([1]; single PO 100 mg/kg): 32.4 L/kg |
| N#Cc1cc(NC(=O)[C@H]2c3ccccc3C(=O)N(CC(F)(F)F)[C@@H]2c2cn[nH]c2)ccc1F [SJ311] | – | – | – | – | – | – | – | – | – | – | – | – | – | – | weak inhibitors | weak inhibitor | weak inhibitors | 22 to 23 | 1.38 to 1.56 | Mouse F (oral bioavailability) ([1]; mouse, summary over the oral doses studied): 23% |
| N#Cc1cc(NC(=O)[C@H]2c3ccccc3C(=O)N(CC(F)(F)F)[C@@H]2c2cccnc2)ccc1F (racemic) [SJ733] | – | – | – | – | – | – | – | – | – | – | – | – | – | – | weak inhibitors | weakly inhibited | weak inhibitors | 65 to 81 | 1.38 to 1.65 | clearance ([1]; female, C57BL/6, mouse, plasma, observed in mice, read-out: in vivo clearance (converted)): ~50 mL/min/kg |
